# From PubChem BioAssay AID2060888 (Molecular Pharmacology Branch, DTP, NCI, 2025)
# pIC50: −log10 of the molar value. Several values for one entry are separate records, joined by “and”; a condition that tells them apart may be missing. Equal values may be shown once.
# Tested on: 695427-040-R-J1-PDC complex spheroid viability
# Experiment: Anticancer human tumor 695427-040-R-J1-PDC patient-derived colon adenocarcinoma cell line growth inhibition [RAS]
# Conditions: for viability, T/C: stronger effect = lower value
# Description: RAS pathway inhibitors in Combinations in Complex Spheroids
# A high-throughput screen of multi-cell type tumor spheroids was designed to identify active combinations of RAS pathway inhibitors and targeted small molecules. Complex spheroids include a stromal component modeled by human endothelial cells (HUVEC) and fibroblasts modeled by human mesenchymal stem cells (MSCs). The concentration ranges selected for each drug and investigational agent were based upon clinically achievable concentrations if the clinical Cmax of the agent was known.
# Compounds. The drugs and investigational agents: abemaciclib (NSC768073), cobimetinib (NSC768068), divarasib (GDC6063, NSC841802), docetaxel (NSC628503), GDC-1971 (RLY-1971, NSC841576), gemcitabine (NSC613327), inavolisib (NSC800729), ipatasertib (NSC767898), KB-0742 (NSC834161), MRTX-1133 (NSC836407), osimertinib (NSC779217), RMC-4630 (NSC839698), RMC-6236 (NSC851965), RMC-6291 (NSC852671), Ro-3306 (NSC812927), sapanisertib (NSC764658), SN-38 (NSC673596), staurosporine (NSC755774), SY5609 (NSC837396), and tovorafenib (DAY101, NSC766906), were obtained from the National Cancer Institute (NCI) Developmental Therapeutics Program Chemical Repository. The FDA-approved anticancer drug set is available from the NCI Developmental Therapeutics Program. […] The stock solutions were prepared in dimethyl sulfoxide (DMSO, Sigma-Aldrich, St. Louis, MO, cat. D2650) at 800-fold the tested concentration and stored at -70 degrees C prior to their use. All drugs and investigational agents were tested over a range starting from a high concentration at or near the clinical Cmax and decreasing in half-log increments. If the clinical Cmax for an agent had not been determined, the highest concentration tested was 10 microM.
# Cell Culture. All cells were maintained in an incubator at 37 degrees C and 5% CO2 with 95% humidity. The PDC lines were cultured according to standard operating procedures established by the NCI PDMR. All PDCs were thawed and cultured in Matrigel-coated flasks prepared with a working solution of 1X Ham's F-12 nutrient mix, without supplementation (Invitrogen, Waltham, MA, cat. 11765054), 100 U/mL penicillin-streptomycin (Invitrogen, cat. 15140122), and 2.5% Matrigel (Corning Inc., Corning, NY, cat. 354248) for the first three passages. The 362531-283-R-J2-PDC and 782815-120-R-J1-PDC lines were cultured in 6C/Colon 1B media, which includes advanced DMEM/F-12 (Thermo Fisher Scientific, cat. 12634028), 10 mM HEPES (Thermo Fisher Scientific, cat. 15630080), 1X GlutaMAX supplement (Thermo Fisher Scientific, cat. 35050061), 0.1 mg/mL primocin (InvivoGen, San Diego, CA, cat. ant-pm-2), 10% defined fetal bovine serum, heat inactivated (HyClone Laboratories Inc., Logan, UT, cat. SH30070.03HI), 50% L-WRN conditioned media (ATCC, cat. CRL-3276), 1.25 mM N-Acetyl-L-cysteine (Sigma-Aldrich, cat. A9165), 10 mM nicotinamide (Sigma-Aldrich, cat. N0636), 1X B-27 supplement (Thermo Fisher Scientific, cat. 17504044), 1X N-2 supplement (Thermo Fisher Scientific, cat. 17502048), 50 ng/mL human EGF (Thermo Fisher Scientific, cat. PHG0311), and 10 microM Y-27632 dihydrochloride (Tocris Bioscience, cat. 1254). The K12877-001-R-J1-PDC line was cultured in 6I media, which includes all 6C/Colon 1B media plus 10 ng/mL human FGF-10 (PeproTech, cat. 100-26), 1 ng/mL human FGF-2 (PeproTech, cat. 100-18B), 1 µM prostaglandin E2 (Tocris Bioscience, cat. 2296), […] hydrocortisone (Sigma-Aldrich, cat. H4001), and […] bovine insulin (Sigma-Aldrich, cat. I6634). The K86415-001-R-J1-PDC line was cultured in 6D media, which includes all 6C/Colon 1B media components minus the L-WRN conditioned media. The 485176-168-R4-J1-PDC was cultured in PANC media, which includes all 6C/Colon 1B media plus 100 ng/mL human FGF-10 (PeproTech, cat. 100-26), 500 nM SB-431542 (Selleckchem, cat. S1067), and 10 nM gastrin (Tocris Bioscience, cat. 3006). […]
# [1] = compound alone, run of 06/10/2024
# 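Note: viability read after seven days of drug exposure.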
# 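Throughout, for viability, T/C: 100% = DMSO vehicle control viability.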
pIC50 (curve of compound),IC50 (curve of compound),SMILES,"viability, T/C (compound 0.0316 µM)","viability, T/C (compound 0.1 µM)","viability, T/C (compound 0.316 µM)","viability, T/C (compound 1 µM)","viability, T/C (compound 3.16 µM)","viability, T/C (compound 10 µM)","viability, T/C (compound 0.00316 µM)",further results
< 6.00,,C=CC(=O)N1CCN(c2nc(OCC3CCCN3C)nc3c(F)c(-c4nc(N)cc(C)c4C(F)(F)F)c(Cl)cc23)C(C)C1 (centres undefined),100% [middle of 12 runs],102% [middle of 12 runs],,,,,97.3% [middle of 12 runs],pIC50 [1]: < 6.00
,597 nM [middle of 4 runs],C=CC(=O)Nc1cc(Nc2nccc(-c3cn(C)c4ccccc34)n2)c(OC)cc1N(C)CCN(C)C,83.7% [middle of 4 runs],79.4% [middle of 4 runs],63.1% [middle of 4 runs],40.1% [middle of 4 runs],,,96.4% [middle of 4 runs],"viability, T/C (compound 0.01 µM): 92% [middle of 4 runs]"
< 5.00 and 5.00,,CC(C)NCC(C(=O)N1CCN(c2ncnc3c2C(C)CC3O)CC1)c1ccc(Cl)cc1 (centres undefined),102% [middle of 4 runs],,96.3% [middle of 4 runs],88.8% [middle of 4 runs],,,,
< 7.00 and 7.22,,CC(C)n1nc(-c2ccc3oc(N)nc3c2)c2c(N)ncnc21,73.5% [middle of 4 runs],61.9% [middle of 4 runs],,,,,91.7% [middle of 4 runs],"viability, T/C (compound 0.000316 µM): 101% [middle of 4 runs]; viability, T/C (compound 0.001 µM): 99.3% [middle of 4 runs]; viability, T/C (compound 0.01 µM): 81.6% [middle of 4 runs]"
< 6.52,,CC1(C)CCC(Nc2ncc(C(F)(F)F)c(-c3c[nH]c4c(P(C)(C)=O)c(C#N)ccc34)n2)CN1 (centres undefined),,,,,,,,"viability, T/C (compound 0.000949 µM): 95.8% [middle of 4 runs]; viability, T/C (compound 0.003 µM): 89.1% [middle of 4 runs]; viability, T/C (compound 0.00949 µM): 92.5% and 92.7% and 87.3% (2×); viability, T/C (compound 0.03 µM): 87.3% [middle of 4 runs]; viability, T/C (compound 0.0949 µM): 87.8% [middle of 4 runs]; viability, T/C (compound 0.3 µM): 76.5% [middle of 4 runs]"

# The next lines start with the compound.
SMILES,pIC50 (curve of compound),IC50 (curve of compound),"viability, T/C (compound 0.0316 µM)","viability, T/C (compound 0.1 µM)","viability, T/C (compound 0.316 µM)","viability, T/C (compound 1 µM)","viability, T/C (compound 3.16 µM)","viability, T/C (compound 10 µM)","viability, T/C (compound 0.00316 µM)",further results
C#Cc1c(F)ccc2cc(O)cc(-c3ncc4c(N5CC6CCC(C5)N6)nc(OCC56CCCN5CC(F)C6)nc4c3F)c12 (centres undefined),,,99.3% [middle of 8 runs],95.3% [middle of 8 runs],89.5% [middle of 8 runs],73.6% [middle of 8 runs],62.1% [middle of 8 runs],42.7% [middle of 8 runs],,IC50 [1]: 6.3 µM [middle of 8 runs]
CC(Nc1ccc2c(c1)OCCn1cc(N3C(=O)OCC3C(F)F)nc1-2)C(N)=O (centres undefined),,,89.9% [middle of 4 runs],72.5% [middle of 4 runs],73.7% [middle of 4 runs],,,41.9% [middle of 4 runs],,
CC1(O)CCCC1n1c(=O)c(C(F)F)cc2cnc(NC3CCN(S(C)(=O)=O)CC3)nc21 (centres undefined),< 5.00,,93.3% [middle of 4 runs],98.2% [middle of 4 runs],104% [middle of 4 runs],,123% (2×) and 107% and 97.5%,64.5% [middle of 4 runs],,
CCC(CC)c1cc(NC2CCC(N)C2)n2nccc2n1 (centres undefined),5.66 and 5.71 and 5.74,,104% [middle of 4 runs],96.3% [middle of 4 runs],106% (2×) and 127% and 91%,108% [middle of 4 runs],15.6% [middle of 4 runs],12.6% [middle of 4 runs],,
